Test [1] has as its system supercoiled DNA. Nature of the test: Peroxyl radical (AAPH) induced supercoiled DNA scission, agarose gel electrophoresis. It is filed as biochemical. An excerpt: The effects of the anthocyanin composition in preventing DNA oxidation induced by oxidative radicals such as the peroxyl radical and hydroxyl radicals (site specific and non-site specific) were investigated. […] A similar effect was seen by the addition of cyanidin-3-glucoside and peonidin-3-glucoside in combination at various ratios Figure 11).
(§1) Both peroxyl radical and hydroxyl radical were applied in this test to evaluate the effect of black rice extract of the present invention in preventing DNA scission by 0.7% agarose gel electrophoresis with 0.5µg/ml ethidium bromide using TAE buffer (40mM Tris-acetate, 2mM EDTA, pH8.5). DNA bands were visualized by ultraviolet bench top transilluminator (UVP Inc., Upland, CA) and densities of bands were analyzed by LabWork software (UVP Inc., Upland, CA). The inhibition of DNA nicking was calculated as following equation: %Inh = (Dnative -Dsample)/(Dnative -Doxidative) × 100 [formula]
(§2) Dnative, Doxidative. Dsample represented the density of DNA without AAPH, DNA with AAPH and DNA with AAPH and test sample, respectively.

For test [2], the system named is LPS-activated mouse macrophage cell RAW264.7. Nature of the test: Inhibition of nitric oxide (nitrite, Griess reagent) in LPS-activated macrophage cells. It counts as cell-based. The note with it: mean±SD, 1µg/ml LPS 24 hr. As for the experimental part: Mouse macrophage cell RAW 264.7 (ATCC) was cultured in DMEM medium supplemented with 10% fetal bovine serum and antibiotics (100U/ml of penicillin and […]) at 37°C under 5% CO2, Cell was plated at a density of 2×10^5 cells/well into 96-well plates. After overnight growth when cells adhered to the bottom of well, various amount of the black rice extract in PBS and 1µg/ml bacterial lipopolysaccharide (LPS, Escheridchia coli, serotype 0111:B4) were added for another 24 hr. Medium was aliquot (100µl) to another 96-well plate where 100µl of Greiss reagent (1% sulfanilamide in 5% phosphoric acid and 0.1 % naphthylethylenediamine dihydrocholide in water, 1:1 v/v) was then added. Absorbance at 540nm was determined with ELISA plate reader. The concentration of nitrite was measured in according to standard curve obtained from the same procedure. The inhibition of nitric oxide was calculated according to the following equation: %Inhibition = (Abspositive -Abssample)/(Abspositive -Absnegative) × 100 [formula] of which, Abspositive, Absnegative, Abssample represent absorbance of cultural media with LPS, without LPS and sample with LPS.
Large amount of nitric oxide expression was made possible by using mouse macrophage cell line RAW264.7 co-incubated with bacterial LPS. The measurement of nitric oxide was indirectly measured by its metabolite nitrite in the supernatant of cell cultural media by Griess reagent.
For orientation: The Griess reaction detects nitrite, a stable product of nitric oxide.

Test [3] has as its system supercoiled DNA. Nature of the test: DNA nicking induced by non-site specific hydroxyl radical, agarose gel electrophoresis. It counts as biochemical. The procedure:
(§3) In this hydroxyl radical model, the hydroxyl radical was generated by ascorbic acid mediated Fenton reaction.
as §1, §2
(§4) In the present study, we adapted the concept of both non-site specific and site-specific hydroxyl radical and applied these to the DNA scission assays (Figures 10 and 11). It is evident that hydroxyl radical, no matter site-specific or non-site specific broke the integrity of supercoiled DNA strand (lane 2 of Figure 10).

Test [4] deals with supercoiled DNA. In words: DNA nicking induced by site-specific hydroxyl radical, agarose gel electrophoresis. It counts as biochemical. The procedure: as §3, §1, §2, §4

Each structure is given as a SMILES string.

As to `COc1cc(-c2[o+]c3cc(O)cc(O)c3cc2O[C@@H]2O[C@H](CO)[C@@H](O)[C@H](O)[C@H]2O)ccc1O` [Peonidin-3-glucoside, peonidin-3-O-glucoside], the results for the “protection on the DNA strand scission” value in the test with supercoiled DNA [1] (1µg/ml) and with supercoiled DNA [1] (5µg/ml) were 11.4% and 44.1%, respectively. For the same molecule, the entries for the “Inhibition percentage of nitric oxide” value in test [2] (1µM), in test [2] (10µM) and in test [2] (100µM) were 14.4±0.6%, 22.3±3.7% and 35.0±2.5%, respectively.
The inhibition is the drop in the measured response relative to a control, in per cent. Turning to `OC[C@H]1O[C@@H](Oc2cc3c(O)cc(O)cc3[o+]c2-c2ccc(O)c(O)c2)[C@H](O)[C@@H](O)[C@@H]1O` [Cyanidin-3-glucoside, cyanidin-3-O-glucoside], the “protection on the DNA strand scission” value in the test with supercoiled DNA [1] (1µg/ml) is given as 11.5%; in the test on supercoiled DNA [1] (5µg/ml), 45.3%. Further, the inhibition at 1 µM in test [2] (Mus musculus, RAW264.7, 1µM, read-out: Inhibition percentage of nitric oxide) came to 12.7 ± 2.7%. In test [2] (Mus musculus, RAW264.7, 10µM, read-out: Inhibition percentage of nitric oxide), the inhibition at 10 µM turned out to be 23.1 ± 0.9%. The inhibition at 100 µM in test [2] (Mus musculus, RAW264.7, 100µM, read-out: Inhibition percentage of nitric oxide) amounted to 72.9 ± 4.8%.
On to `Cc1c(C)c2c(c(C)c1O)CCC(C)(C(=O)O)O2` (stereo not shown) [Trolox], for which the “Inhibition percentage, Non-site specific” value in the test on supercoiled DNA [3] (0.17 µg/ml) was 44.0%; in the test with supercoiled DNA [3] (1.7 µg/ml), 80.8%. Further, the “Inhibition percentage, Site specific” value in the test on supercoiled DNA [4] (0.17 µg/ml) is 25.7%; in the test with supercoiled DNA [4] (1.7 µg/ml), 61.0%. For the same molecule, the “%Inh” value in the test on supercoiled DNA [1] (10µg/ml) is on record as 100%. Further, the “recovery of peroxyl radical damage to the supercoiled DNA strand” value in the test with supercoiled DNA [1] (Figure 10) is “partial recovery”.
